One data set is described as follows: Solubility (remark). The format is physicochemical. The following applies: prevented agar plate-based resistance selections.
The subject of a further data set is cells expressing lppΔK. Briefly: Time-kill, CFT073 imp4213 Δlpp complemented with lpp or lppΔK. The format is cell-based, E. coli. The following applies: 12.5 μM G2824 or 3.2 μM globomycin; CFU; lppΔK (unable to link to PGN) versus WT lpp. From the text:
To determine if loss of PGN linkage of Lpp leads to increased G2824 bactericidal activity, we treated CFT073 imp4213 Δlpp cells complemented with either WT lpp or a mutant form that is unable to covalently link to PGN (lppΔK). Using the previously described SDS fractionation protocol, we confirmed that while WT Lpp localized to both PAP and non-PAP fractions, the LppΔK mutant was primarily detected in the non-PAP fraction (see Fig. S5A). As we noted earlier, PGN-linked DGPLP (§) and other PGN-linked Lpp forms (†) were primarily detectable in the PAP fraction (Fig. S5A).
Unless stated otherwise, E. coli cells were grown in Luria-Bertani (LB) medium (0.5% yeast extract, 1% tryptone, 0.5% NaCl) at 37°C. […] Growth of MG1655 inducible deletion strains was measured by culturing in the presence of 2-fold dilutions of arabinose (starting arabinose concentrations for CFT073 and MG1655 inducible deletion strains were 4% and 0.8%, respectively). While 2% arabinose was sufficient for WT growth of MG1655 Δlgt, 4% arabinose was used for CFT073 Δlgt based on comparing its growth to that of WT CFT073 as measured by CFU. OD600 growth measurements were performed using an EnVision 2101 multilabel reader plate reader (PerkinElmer) linked with Echo liquid handler (Labcyte). […] Bacterial viability at different time points during the treatment was measured by enumerating CFU. […]

A further data set deals with CFT073 imp4213. Briefly: Western blot of Lpp forms. It counts as cell-based, E. coli. Conditions: 0.5× MIC, 30 min. On the procedure: (§1) Bacterial cell samples normalized for equivalent OD600 and resuspended in BugBuster lysis buffer (Fischer Scientific) with the addition of sample buffer (LI-COR), and proteins were separated by SDS-PAGE using 16% Tricine protein gels or NuPAGE 4% to 20% bis-Tris gels (Thermo Fisher Scientific), transferred to nitrocellulose membranes using the iBlot 2 dry blotting system (Invitrogen), and blocked using LI-COR blocking buffer for 30 min. Unless stated otherwise, loading buffer with reducing agents was added and samples were not boiled prior to SDS-PAGE. For the sucrose gradient centrifugation, samples were boiled prior to running the SDS-PAGE. Primary antibodies were used at a final concentration of 1 μg/ml with some exceptions: rabbit anti-Lpp polyclonal antibody (0.1 μg/ml), murine anti-Pal 6D7 antibody (0.5 μg/ml), rabbit anti-GroEL antibody (1:10,000 final dilution), and rabbit anti-OmpA antibody (1:50,000 final dilution). The secondary antibodies were all obtained from LI-COR and used as per manufacturer’s instructions. Images were collected using the Odyssey CLx imaging system (LI-COR) and analyzed by Image Studio Lite.

A further data set has as its system CFT073 imp4213 lpp^Ara. Briefly: Western blot of Lpp forms, arabinose-inducible Lpp. It counts as cell-based, E. coli. The following applies: Lpp induced with arabinose prior to treatment.
Excerpt: Lpp expression was induced prior to treatment with G2824 or globomycin to minimize the level of preexisting triacylated Lpp.
as §1

The next data set relates to BW25113 cells, lgt gRNA. Put plainly: CRISPRi knockdown sensitization, lgt gRNA. The format is cell-based, E. coli. Conditions: 2 μM G2824, 0.05 μM globomycin or 0.016 μM ciprofloxacin; OD600 relative to untreated, versus scr or folA gRNA. From the text: The two-plasmid bacterial CRISPRi system pdCas9-bacteria_GNE and PGNRNA-bacteria_GNE are based on the AddGene plasmids 44249 and 44251 ([73]), respectively. The plasmid was synthesized in smaller DNA fragments (500 bp to 3 kb) (IDT gBlocks) and assembled by Gibson assembly (NEB) according to the manufacturer’s protocols. Plasmids were confirmed by sequencing (ELIM Bio). gRNAs were designed to target the 5′ end of the gene on the nontemplate strand using Benchling CRISPR software ([74]). gRNAs were cloned into PGNRNA-bacteria using Gibson assembly (NEB) according to the manufacturer’s protocols and sequence confirmed (ELIM Bio).
Bacterial cultures were grown overnight on LB agar supplemented with carbenicillin (50 μg/ml) and chloramphenicol (12.5 μg/ml) to maintain both plasmids, pdCas9-bacteria and PGNRNA-bacteria with each gRNA as appropriate. Cells were scraped from the plate into fresh medium. The OD600 was measured, and the culture was subsequently diluted to an OD600 0.001 in the presence or absence of G2824, globomycin, or ciprofloxacin. Two hundred microliters was transferred to a 96-well plate (Corning) and monitored for growth by measuring the OD600 (EnVision multimode plate reader; PerkinElmer). All treatments were performed in triplicates. The specificity of CRISPRi downregulation was measured using reverse transcriptase quantitative PCR (RT-qPCR).

The subject of another data set is LspA. Conditions: LspA inhibitor globomycin; cited from earlier work. From the text:
Using a combination of biochemical and genetic strategies, we believe the Lgt inhibitor G2824 identified in this study inhibits bacterial cell growth through inhibition of the diacylglyceryl transferase activity of Lgt. First, G2824 was identified using a specific Lgt binding assay and confirmed to inhibit Lgt enzymatic function in vitro. Second, the results generated from pharmacologic inhibition of Lgt by G2824 in both CFT073 and MG1655 E. coli strains are highly consistent with the genetic depletion of Lgt, strongly arguing against off-target effects as a main cause of G2824 bactericidal ac ...

The subject of a further data set is CFT073 Δlgt. Briefly: MIC assay, CFT073 Δlgt, Lgt 4% Ara. It counts as cell-based, E. coli. Conditions: Escherichia coli. How it is done:
(§2) Unless stated otherwise, E. coli cells were grown in Luria-Bertani (LB) medium (0.5% yeast extract, 1% tryptone, 0.5% NaCl) at 37°C. Where indicated, kanamycin (Kan) was added to culture media at a 50-μg/ml final concentration. MIC assays were performed based on Clinical and Laboratory Standards Institute (CLSI) guidelines. For in vitro growth curves, overnight cultures of WT CFT073, CFT073 Δlgt, and CFT073 Δlgt complemented with lgt from E. coli (lgt^Ec) or P. aeruginosa (lgt^Pa) were grown to mid-exponential phase (optical density at 600 nm [OD600] of 0.6) and then diluted to an OD600 of 0.1 to initiate growth curves. At various times, culture aliquots were diluted and plated in dilutions on LB+Kan agar, and CFU were enumerated in duplicates. Growth of MG1655 inducible deletion strains was measured by culturing in the presence of 2-fold dilutions of arabinose (starting arabinose concentrations for CFT073 and MG1655 inducible deletion strains were 4% and 0.8%, respectively). While […] was sufficient for WT growth of MG1655 Δlgt, 4% arabinose was used for CFT073 Δlgt based on comparing its growth to that of WT CFT073 as measured by CFU. OD600 growth measurements were performed using an EnVision 2101 multilabel reader plate reader (PerkinElmer) linked with Echo liquid handler (Labcyte). For time-kill experiments, bacteria were harvested in mid-exponential phase and treated with 12.5 μM G2824, 3.2 μM globomycin, and 1.6 μM vancomycin. CFU were enumerated at various times posttreatment. Bacterial culture medium containing 2% arabinose was used to induce lpp or lppΔK expression from pBad24 plasmids. Bacterial viability at different time points during the treatment was measured by enumerating CFU. Serum killing assays were carried out as previously described ([17]).

Another data set has as its system WT CFT073. Put plainly: MIC assay, WT CFT073 (Table 1). The format is cell-based, E. coli. The following applies: Escherichia coli, average of two independent experiments, each in duplicates, CLSI. How it is done: as §2

The term MIC denotes the lowest concentration that inhibits growth of the organism. Low values mean a more susceptible organism, high ones a less susceptible organism.

Where a SMILES comes first, the peptide text is derived from it. Bridges are numbered along the chain shown (N, C = ends). [ ]: non-standard residue; d: D form. Bip = N[C@@H](Cc1ccc(-c2ccccc2)cc1)C(=O)O; NMeF = CN[C@@H](Cc1ccccc1)C(=O)O Where only a bound is given, the exact number is not on record here.

For `CN1C(=O)[C@H](Cc2ccc(-c3ccccc3)cc2)NC(=O)CNC(=O)[C@H](CC(=O)O)NC(=O)[C@@H](Cc2ccccc2)NC(=O)CSC[C@@H](C(=O)NCC(=O)N[C@@H](CCCCN)C(=O)N[C@@H](CCCCN)C(N)=O)NC(=O)[C@H](CCCNC(=N)N)NC(=O)[C@H](CO)NC(=O)[C@H](Cc2ccc(-c3ccccc3)cc2)NC(=O)[C@@H]1Cc1ccccc1` [G2824] ({CH2CO}-[dF]DG[Bip][NMeF][Bip]SRCGKK-NH2; thioether N-9), the solubility result in the data set “Solubility (remark)” was “solubility issues”.

As to `CCCCCC[C@H]1OC(=O)CNC(=O)[C@H]([C@H](C)O)NC(=O)[C@H](CO)NC(=O)[C@H]([C@H](C)CC)NC(=O)[C@H](CC(C)C)N(C)C(=O)[C@@H]1C` [Globomycin], the “effect of lppΔK on bactericidal killing” value with cells expressing lppΔK is “completely resistant”. In the data set with CFT073 imp4213, the “accumulation of Lpp forms” value was “accumulation of DGPLP and other PGN-linked Lpp forms”. In addition, the “level of mature Lpp” value in the data set with CFT073 imp4213 lpp^Ara is reported as “decreased mature Lpp”. Also, the “sensitization by decreased lgt expression” value in the data set on BW25113 cells, lgt gRNA was “not globomycin”. In the data set on LspA, the on-target resistance mutations result is reported as “no on-target resistance mutations have ever been identified”.

As to `CN[C@H](CC(C)C)C(=O)N[C@H]1C(=O)N[C@@H](CC(N)=O)C(=O)N[C@H]2C(=O)N[C@H]3C(=O)N[C@H](C(=O)N[C@H](C(=O)O)c4cc(O)cc(O)c4-c4cc3ccc4O)[C@H](O)c3ccc(c(Cl)c3)Oc3cc2cc(c3O[C@@H]2O[C@H](CO)[C@@H](O)[C@H](O)[C@H]2O[C@H]2C[C@](C)(N)[C@H](O)[C@H](C)O2)Oc2ccc(cc2Cl)[C@H]1O` [Vancomycin], the MIC against CFT073 Δlgt and in the data set on WT CFT073 was greater than 100 µM in each case.

Source of the values: paper PMC8316002, “Inhibition of Escherichia coli Lipoprotein Diacylglyceryl Transferase Is Insensitive to Resistance Caused by Deletion of Braun’s Lipoprotein” (Journal of Bacteriology, 2021).
